Assay results: PubChem BioAssay AID1963981 (Molecular Pharmacology Branch, DTP, NCI, 2024)

System: 354836-022-R-J1-PDC multicell spheroid viability
Assay: Anticancer human tumor 354836-022-R-J1-PDC patient-derived head and neck squamous cell carcinoma cell line growth inhibition [PI3K]
Conditions: for viability, T/C: stronger effect = lower value; active = viability on the fitted dose curve at most 10% of control; inactive = the rest
Method in brief: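 High-throughput combination screen: PI3K inhibitors crossed with targeted small molecules on complex spheroids of tumor cells, HUVEC and MSCs at 37 degrees C, 5% CO2. Top concentration was at or near clinical Cmax (otherwise 10 microM), with half-log decrements.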

[1] = curve of first compound, second compound 0.0316 µM
[2] = curve of first compound, second compound 0.1 µM
[3] = curve of first compound, second compound 0.316 µM
[4] = curve of first compound, second compound 1 µM
[5] = curve of first compound, second compound 3.16 µM
[6] = curve of first compound, second compound 10 µM
[7] = second compound 0.0316 µM, first compound 0.0316 µM
[8] = second compound 0.0316 µM, first compound 0.1 µM
[9] = second compound 0.0316 µM, first compound 0.316 µM
[10] = second compound 0.0316 µM, first compound 1 µM
[11] = second compound 0.0316 µM, first compound 3.16 µM
[12] = second compound 0.0316 µM, first compound 10 µM
[13] = second compound 0.1 µM, first compound 0.0316 µM
[14] = second compound 0.1 µM, first compound 0.1 µM
[15] = second compound 0.1 µM, first compound 0.316 µM
[16] = second compound 0.1 µM, first compound 1 µM
[17] = second compound 0.1 µM, first compound 3.16 µM
[18] = second compound 0.1 µM, first compound 10 µM
[19] = second compound 0.316 µM, first compound 0.0316 µM
[20] = second compound 0.316 µM, first compound 0.1 µM
[21] = second compound 0.316 µM, first compound 0.316 µM
[22] = second compound 0.316 µM, first compound 1 µM
[23] = second compound 0.316 µM, first compound 3.16 µM
[24] = second compound 0.316 µM, first compound 10 µM
[25] = second compound 1 µM, first compound 0.0316 µM
[26] = second compound 1 µM, first compound 0.1 µM
[27] = second compound 1 µM, first compound 0.316 µM
[28] = second compound 1 µM, first compound 1 µM
[29] = second compound 1 µM, first compound 3.16 µM
[30] = second compound 1 µM, first compound 10 µM
[31] = second compound 3.16 µM, first compound 0.0316 µM
[32] = second compound 3.16 µM, first compound 0.1 µM
[33] = second compound 3.16 µM, first compound 0.316 µM
[34] = second compound 3.16 µM, first compound 1 µM
[35] = second compound 3.16 µM, first compound 3.16 µM
[36] = second compound 3.16 µM, first compound 10 µM
[37] = second compound 10 µM, first compound 0.0316 µM
[38] = second compound 10 µM, first compound 0.1 µM
[39] = second compound 10 µM, first compound 0.316 µM
[40] = second compound 10 µM, first compound 1 µM
[41] = second compound 10 µM, first compound 3.16 µM
[42] = second compound 10 µM, first compound 10 µM
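Also: spheroids exposed to agents for seven days before the viability read.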

Cn1ncc(Cl)c1-c1cc(C(=O)NC(CN)Cc2cccc(F)c2)sc1Cl (stereo unspecified) + CC(Nc1ncnc2nc[nH]c12)c1cc2cccc(Cl)c2c(=O)n1-c1ccccc1
inactive: viability, T/C [7] 74.6% | viability, T/C [8] 48.9% | viability, T/C [9] 31.8% | viability, T/C [10] 15.1% | viability, T/C [13] 70.7% | viability, T/C [14] 61.4% | viability, T/C [15] 36.3% | viability, T/C [16] 17.7% | viability, T/C [19] 74.1% | viability, T/C [20] 52.5% | viability, T/C [21] 30.3% | viability, T/C [22] 17.8% | viability, T/C [25] 65.6% | viability, T/C [26] 67% | viability, T/C [27] 29.6% | viability, T/C [28] 19.3% | viability, T/C [31] 75.6% | viability, T/C [32] 68.1% | viability, T/C [33] 39.5% | viability, T/C [34] 20.9% | viability, T/C [37] 70.8% | viability, T/C [38] 59.7% | viability, T/C [39] 31.8% | viability, T/C [40] 18.9%
215 nM: IC50 [5]
162 nM: IC50 [4]
active: viability, T/C [11] 5.4% | viability, T/C [12] 1.88% | viability, T/C [17] 5.21% | viability, T/C [18] 1.62% | viability, T/C [23] 5.75% | viability, T/C [24] 1.5% | viability, T/C [29] 5.53% | viability, T/C [30] 1.8% | viability, T/C [35] 7.18% | viability, T/C [36] 2.1% | viability, T/C [41] 8.1% | viability, T/C [42] 2.22%
112 nM: IC50 [3]
168 nM: IC50 [2]
145 nM: IC50 [6]
100 nM: IC50 [1]

Cn1nccc1Nc1nccc(-c2ccn(C(CO)c3ccc(Cl)c(F)c3)c(=O)c2)n1 (stereo unspecified) + Cc1nc(NC(=O)N2CCCC2C(N)=O)sc1-c1ccnc(C(C)(C)C(F)(F)F)c1
inactive: viability, T/C [7] 100% | viability, T/C [8] 91% | viability, T/C [9] 101% | viability, T/C [10] 92.5% | viability, T/C [11] 97.2% | viability, T/C [12] 95.1% | viability, T/C [13] 99.2% | viability, T/C [14] 92.5% | viability, T/C [15] 102% | viability, T/C [16] 88.7% | viability, T/C [17] 101% | viability, T/C [18] 91.3% | viability, T/C [19] 95% | viability, T/C [20] 91.3% | viability, T/C [21] 87.7% | viability, T/C [22] 89.3% | viability, T/C [23] 108% | viability, T/C [24] 101% | viability, T/C [25] 76.2% | viability, T/C [26] 89.7% | viability, T/C [27] 77.9% | viability, T/C [28] 79.1% | viability, T/C [29] 100% | viability, T/C [30] 90.3% | viability, T/C [31] 58.4% | viability, T/C [32] 67.5% | viability, T/C [33] 61.9% | viability, T/C [34] 61.8% | viability, T/C [35] 72.4% | viability, T/C [36] 50.1% | viability, T/C [37] 35.6% | viability, T/C [38] 41.5% | viability, T/C [39] 31.4% | viability, T/C [40] 33.7% | viability, T/C [41] 25.8% | viability, T/C [42] 14.7%
> 10000 nM: IC50 [1] | IC50 [2] | IC50 [3] | IC50 [4] | IC50 [5]
< 31.6 nM: IC50 [6]

Cn1cnc2c(F)c(Nc3ccc(Br)cc3Cl)c(C(=O)NOCCO)cc21
inactive: viability, T/C (compound 0.00949 µM) 90% [middle of 4 runs] | viability, T/C (compound 0.03 µM) 85.5% [middle of 4 runs] | viability, T/C (compound 0.0949 µM) 91.4% [middle of 4 runs] | viability, T/C (compound 0.3 µM) 74.8% [middle of 4 runs] | viability, T/C (compound 0.949 µM) 80.2% [middle of 4 runs] | viability, T/C (compound 3 µM) 58.4% [middle of 4 runs]
> 3000 nM: IC50 (curve of compound)
